From PubChem BioAssay (NCI)
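Cultured in 96-well plates, cells were exposed to test compound for 48 hours across five concentrations. Abbreviation: GI50, concentration required for 50% inhibition of growth. TGI marks complete inhibition of growth.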

Assays:
Assay in all cases: NCI tumour cell line growth inhibition, 48 h
MOLT-4 leukemia = test system: MOLT-4 leukemia
MCF7 breast = test system: MCF7 breast
HL-60(TB) leukemia = test system: HL-60(TB) leukemia
HCT-15 colon = test system: HCT-15 colon
DU-145 prostate = test system: DU-145 prostate
SF-295 CNS = test system: SF-295 CNS
SK-OV-3 ovarian = test system: SK-OV-3 ovarian
MDA-MB-231 breast = test system: MDA-MB-231 breast
HCT-116 colon = test system: HCT-116 colon
HCC-2998 colon = test system: HCC-2998 colon
SF-268 CNS = test system: SF-268 CNS
CCRF-CEM leukemia = test system: CCRF-CEM leukemia
ACHN renal = test system: ACHN renal
NCI-H23 lung = test system: NCI-H23 lung
SN12C renal = test system: SN12C renal
SF-539 CNS = test system: SF-539 CNS
SK-MEL-2 melanoma = test system: SK-MEL-2 melanoma
SW-620 colon = test system: SW-620 colon
KM12 colon = test system: KM12 colon
RXF 393 renal = test system: RXF 393 renal
U251 CNS = test system: U251 CNS
786-0 renal = test system: 786-0 renal
HOP-62 NSCLC = test system: HOP-62 NSCLC
SR leukemia = test system: SR leukemia
OVCAR-4 ovarian = test system: OVCAR-4 ovarian
COLO 205 colon = test system: COLO 205 colon
OVCAR-8 ovarian = test system: OVCAR-8 ovarian
HS 578T breast = test system: HS 578T breast
SNB-19 CNS = test system: SNB-19 CNS

O=C(NCCCc1cn[nH]c1)c1ccc(-c2ccncc2)c(C#Cc2ccc(F)cc2)c1 showed a GI50 (MOLT-4 leukemia) of 1.02 µM, a TGI (MOLT-4 leukemia) of over 57 µM and a GI50 (MCF7 breast) of 1.9 µM. It also gave a TGI (MCF7 breast) of over 70.2 µM, a GI50 (HL-60(TB) leukemia) of 1.85 µM and a TGI (HL-60(TB) leukemia) of 14.6 µM. The GI50 (HCT-15 colon) was under 0.01 µM, the TGI (HCT-15 colon) was over 57.9 µM and the GI50 (DU-145 prostate) was under 0.01 µM. It also gave a TGI (DU-145 prostate) of over 100 µM, a TGI (SF-295 CNS) of 47.9 µM and a GI50 (SK-OV-3 ovarian) of 8.96 µM. The TGI (SK-OV-3 ovarian) was over 100 µM, the GI50 (MDA-MB-231 breast) was 16.4 µM and the TGI (MDA-MB-231 breast) was over 100 µM. It also gave a GI50 (HCT-116 colon) of under 0.01 µM, a TGI (HCT-116 colon) of 15.2 µM and a TGI (HCC-2998 colon) of 26.1 µM. The GI50 (SF-268 CNS) was 58.8 µM, the TGI (SF-268 CNS) was over 100 µM and the GI50 (CCRF-CEM leukemia) was under 0.01 µM. For the same compound, the TGI (CCRF-CEM leukemia) was over 100 µM, the GI50 (ACHN renal) was 6.91 µM and the TGI (ACHN renal) was over 100 µM. It also gave a GI50 (NCI-H23 lung) of 14.5 µM, a TGI (NCI-H23 lung) of over 100 µM and a GI50 (SN12C renal) of under 0.01 µM. It also gave a TGI (SN12C renal) of over 100 µM, a GI50 (SF-539 CNS) of under 0.01 µM and a TGI (SF-539 CNS) of 14.5 µM. For the same compound, the GI50 (SK-MEL-2 melanoma) was 11.5 µM, the TGI (SK-MEL-2 melanoma) was over 74.1 µM and the GI50 (SW-620 colon) was under 0.01 µM. It also gave a TGI (SW-620 colon) of over 100 µM, a GI50 (KM12 colon) of under 0.0155 µM and a TGI (KM12 colon) of over 83.2 µM. The GI50 (RXF 393 renal) was 3.58 µM, the TGI (RXF 393 renal) was 19.8 µM and the GI50 (U251 CNS) was 0.243 µM. For the same compound, the TGI (U251 CNS) was over 100 µM, the GI50 (786-0 renal) was 3.66 µM and the TGI (786-0 renal) was over 64.1 µM. For the same compound, the GI50 (HOP-62 NSCLC) was 5.49 µM, the TGI (HOP-62 NSCLC) was over 64.9 µM and the GI50 (SR leukemia) was 2.53 µM. It also gave a TGI (SR leukemia) of over 100 µM, a GI50 (OVCAR-4 ovarian) of 11.6 µM and a TGI (OVCAR-4 ovarian) of over 100 µM. The GI50 (COLO 205 colon) was under 0.01 µM, the TGI (COLO 205 colon) was 46.1 µM and the GI50 (OVCAR-8 ovarian) was under 0.01 µM. The TGI (OVCAR-8 ovarian) was over 100 µM, the GI50 (HS 578T breast) was 18.9 µM and the TGI (HS 578T breast) was over 100 µM. For the same compound, the GI50 (SNB-19 CNS) was 0.229 µM and the TGI (SNB-19 CNS) was over 100 µM.
